No end group written: not given here.
Assays:
DRB1_0301 = DRB1_0301 (Homo sapiens, UniProt P01903+P01911, A100K/A102G/A103R/A169T/F55Y/I96L/K41T/L162R/M171V/P40S/Q125H/Q178H/Q39Y/R42S/S66N/T106N/T262R/W38E/Y61H); assay: Competitive MHC class II binding assay, DRB1_0301
DPA10103-DPB10301 = target: T1, DPA10103-DPB10301 (Homo sapiens, UniProt P04440+P20036, A65V/A84D/A85E/E86D/F38Y/G113D/G114E/G40L/I94L/L37V/M105V/M116V/P115A/R125K/T199I); assay: Competitive MHC class II binding assay, DPA10103-DPB10301
T1 sequence (P20036 29-260): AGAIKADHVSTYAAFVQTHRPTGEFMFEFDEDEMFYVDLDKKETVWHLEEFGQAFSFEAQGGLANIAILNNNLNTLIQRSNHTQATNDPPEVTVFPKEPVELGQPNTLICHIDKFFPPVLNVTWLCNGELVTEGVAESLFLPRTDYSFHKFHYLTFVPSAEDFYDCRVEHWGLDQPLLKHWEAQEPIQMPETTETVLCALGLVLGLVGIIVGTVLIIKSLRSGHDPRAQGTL
T1 sequence (P04440 30-258 L37V/F38Y/G40L/A65V/A84D/A85E/E86D/I94L/M105V/G113D/G114E/P115A/M116V/R125K/T199I/V234M): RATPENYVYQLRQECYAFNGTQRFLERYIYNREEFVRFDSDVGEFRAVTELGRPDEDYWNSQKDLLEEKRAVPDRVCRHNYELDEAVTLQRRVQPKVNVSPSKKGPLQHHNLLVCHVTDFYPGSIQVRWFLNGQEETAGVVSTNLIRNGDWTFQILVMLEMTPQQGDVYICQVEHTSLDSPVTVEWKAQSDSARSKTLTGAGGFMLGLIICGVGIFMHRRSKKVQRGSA

DRB1_0401 = DRB1_0401 (Homo sapiens, UniProt P01903+P01911, A100K/A169T/F76Y/I96L/K127E/L162R/M171V/N62H/P40V/Q125Y/R42H/S133A/S149N/S66Y/V115G/V209L/W38E); assay: Competitive MHC class II binding assay, DRB1_0401
DRB5_0101 = DRB5_0101 (Homo sapiens, UniProt P01903+Q30154); assay: Competitive MHC class II binding assay, DRB5_0101
DRB1_1101 = DRB1_1101 (Homo sapiens, UniProt P01903+P01911, A100R/A169T/A87E/I96F/K41T/L162R/M171V/P40S/Q125H/Q178H/Q39Y/Q99D/R42S/S66Y/T262R/V115G/W38E); assay: Competitive MHC class II binding assay, DRB1_1101
DRB1_1501 = DRB1_1501 (Homo sapiens, UniProt P01903+P01911); assay: Competitive MHC class II binding assay, DRB1_1501
DRB1_0802 = DRB1_0802 (Homo sapiens, UniProt P01903+P01911, A100R/A103L/A169T/F76Y/H45Y/I96F/K41T/L162R/M171V/P40S/Q125H/Q178H/Q39Y/Q99D/R218S/R42G/S66Y/V115G/W38E); assay: Competitive MHC class II binding assay, DRB1_0802
DRB1_0101 = DRB1_0101 (Homo sapiens, UniProt P01903+P01911, A100R/D57E/F55L/F60I/F76Y/I96L/L162R/M171V/P40L/Q125E/R42F/V115G/Y59C); assay: Competitive MHC class II binding assay, DRB1_0101;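 also: competition against a radiolabeled probe peptide (0.1–1 nM) for purified HLA class II protein over 2–4 days, bound counts read after antibody capture, six competitor levels across 100,000-fold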
DQA10101-DQB10501 = DQA10101-DQB10501 (Homo sapiens, UniProt P01909+P01920, A157S/A45G/A70V/C70R/D89V/E106S/E118A/E183D/E77G/F83G/G63E/H151Q/H199R/H252R/H253Q/I129T/I235V/I88M/INS77G/K197Q/L107V/L117V/L119Y/L178F/L71W/L74F/L85Q/L91A/L98M/M46L/N214S/P87R/Q116E/Q256R/Q57E/Q76K/R102G/R240Q/R75S/R78G/S102Y/S185I/S41F/S97I/T103A/T109R/T121G/T122I/T172A/T86R/V148I/V68A/V73E/Y34C/Y58G/Y62H); assay: Competitive MHC class II binding assay, DQA10101-DQB10501; details: positive binding at cutoff 1000 nM; read-out: HLA-DQA10101-DQB10501
DRB1_0405 = DRB1_0405 (Homo sapiens, UniProt P01903+P01911, A100R/A169T/D86S/F76Y/I96L/K127E/L162R/M171V/N62H/P40V/Q125Y/R42H/S133A/S149N/S66Y/V115G/V209L/W38E); assay: Competitive MHC class II binding assay, DRB1_0405
DRB1_0701 = DRB1_0701 (Homo sapiens, UniProt P01903+P01911, A100R/A102G/A103Q/D57E/D86V/E43K/F76Y/K127E/L162R/M171V/P40G/Q125H/Q99D/R33Q/R42Y/R54Q/S133A/S66F/T210M/V115G/Y107V/Y59L/Y89S); assay: Competitive MHC class II binding assay, DRB1_0701;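 also: displacement of a radiolabeled reference peptide from purified HLA class II protein, with complex-bound radioactivity counted after 2–4 days of incubation and six concentrations spanning a 100,000-fold range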
DRB1_0901 = DRB1_0901 (Homo sapiens, UniProt P01903+P01911, A100R/A103E/D57H/D86V/F55Y/F60I/F76Y/I96F/K127E/L162R/M171V/P40D/Q125H/Q99R/R33Q/R42F/S133A/S66N/T210M/V115G/W38K/Y107V/Y59G/Y89S); assay: Competitive MHC class II binding assay, DRB1_0901;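 also: displacement of a radiolabeled probe peptide from purified HLA class II protein, bound counts read after two to four days incubation, six concentrations spanning 100,000-fold, unlabeled probe as reference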
DRB3_0202 = DRB3_0202 (Homo sapiens, UniProt P01903+P79483, A212P/D57E/F66Y/L67A/R103Q/R218S/R40L/S89Y/T80R/V86D/Y55F/Y59H); assay: Competitive MHC class II binding assay, DRB3_0202
[1] = Solubility of peptides in aqueous solutions at different pH (visual inspection, OD, HPLC); format: physicochemical; details: Table 11a; evaluated by visual inspection
Description: This example describes modifications of parent peptides to improve the aqueous solubility, in particular to increase the solubility in an aqueous solution having pH in a physiologically acceptable range, e.g. from 6 to 8. Solubility is closely related to the ratio between hydrophilic and hydrophobic amino acid residues and the net charge state of the peptide. Peptides have zero net charge at pH=pI, and would be expected to show the lowest solubility at this pH. […] The solubility of these peptides was increased at pH values outside the physiological range (data not shown).
Peptides were tested for their ability to dissolve in aqueous solutions at different pH values. In short, each of the peptides were dissolved in water (pH about 5-6), hydrochloride solution at pH 2 (10 mM HCl), acetate buffer with pH 5 (20 mM acetate and 140 mM sodium chloride), phosphate buffer with pH 7 (20 mM phosphate and 140 mM sodium chloride) or bistrispropate buffer with pH 9 (20 mM bitrispropane and 140 mM sodium chloride, respectively, to produce a final molar concentration of the peptide of about 0.25 mM or 1 mM. Optionally, about 20% DMSO may be part of the solution. For comparison reasons, peptides were also dissolved in acetonitrile or DMSO. The solutions were inspected visually before and after centrifugation for turbidity, presence of particles/aggregates. In addition, presence of turbidity/particles/aggregates were detected by optical density (OD), but might also be detected by size-exclusion chromatography. Sub-visual particles may also be detected by dynamic light scattering (DLS) analysis. The solubility and stability of each peptide were also investigated using HPLC, e.g. RP-HPLC. For example, each of the solutions were injected onto the HPLC and the peak height or peak area of each of the peptides were compared to the corresponding peptide of a chromatogram of peptides dissolved in acetonitrile or DMSO—as peptides were assumed to be fully dissolved and stable in these solvents.

DRB1_1302 = DRB1_1302 (Homo sapiens, UniProt P01903+P01911, A100E/A169T/K41T/L162R/M171V/P40S/Q125H/Q178H/Q39Y/Q99D/R42S/S66N/T262R/V115G/W38E/Y61H); assay: Competitive MHC class II binding assay, DRB1_1302;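 also: purified HLA class II protein incubated two to four days with a radiolabeled reference binder and test peptide at six concentrations over a 100,000-fold range, complex-bound radioactivity counted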
DRB4_0101 = DRB4_0101 (Homo sapiens, UniProt P01903+P13762, G164S); assay: Competitive MHC class II binding assay, DRB4_0101
DPA10103-DPB10201 = target: T2, DPA10103-DPB10201 (Homo sapiens, UniProt P04440+P20036, A65V/A84D/A85E/K98E); assay: Competitive MHC class II binding assay, DPA10103-DPB10201
T2 sequence (P20036 29-260): T1 sequence (P20036 29-260)
T2 sequence (P04440 30-258 A65V/A84D/A85E/K98E): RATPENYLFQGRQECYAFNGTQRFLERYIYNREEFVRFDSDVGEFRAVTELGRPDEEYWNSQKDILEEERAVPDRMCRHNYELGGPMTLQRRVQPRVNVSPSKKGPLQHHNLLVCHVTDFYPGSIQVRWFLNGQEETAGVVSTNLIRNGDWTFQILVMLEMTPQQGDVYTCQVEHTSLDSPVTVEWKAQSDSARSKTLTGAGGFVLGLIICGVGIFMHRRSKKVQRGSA

DQA10501-DQB10201 = DQA10501-DQB10201 (Homo sapiens, UniProt P01909+P01920, A45G/A70V/D89A/E106A/E77G/E98D/H199R/L107V/N214S/P84L/P87L/T103K/T109R/T172A/T60S/V78E/V99I/Y58L/Y62S/Y69I/Y79F); assay: Competitive MHC class II binding assay, DQA10501-DQB10201
DRB3_0101 = DRB3_0101 (Homo sapiens, UniProt P01903+P79483); assay: Competitive MHC class II binding assay, DRB3_0101
DQA10102-DQB10602 = assay: Competitive MHC class II binding assay, DQA10102-DQB10602; details: read-out: HLA-DQA10102-DQB10602; positive binding at cutoff 1000 nM
DQA10501-DQB10301 = DQA10501-DQB10301 (Homo sapiens, UniProt P01909+P01920); assay: Competitive MHC class II binding assay, DQA10501-DQB10301

Molecule | IC50 (DPA10103-DPB10301) [nM] | IC50 (DRB1_0401) [nM] | IC50 (DRB5_0101) [nM] | IC50 (DRB1_1101) [nM] | IC50 (DRB1_1501) [nM] | IC50 (DRB1_0802) [nM] | IC50 (DRB1_0101) [nM] | IC50 (DQA10101-DQB10501) [nM] | IC50 (DRB1_0405) [nM] | IC50 (DRB1_0701) [nM] | IC50 (DRB1_0901) [nM] | IC50 (DRB1_1302) [nM] | IC50 (DRB4_0101) [nM] | other results
QESYYRYVAREQSSRRPNAQ [pep-050] | < 1000 | < 1000 | < 1000 | < 1000 |  |  |  |  |  |  |  |  |  | IC50 (DRB1_0301): < 1000 nM
ATESAYLAYRNTSLD [pep-022] |  | < 1000 |  |  | < 1000 | < 1000 | < 1000 | < 1000 | < 1000 | < 1000 | < 1000 |  |  | 
KGQQYDIKYTWNVPKIA [pep-126] | < 1000 |  | < 1000 |  |  | < 1000 | < 1000 | < 1000 |  | < 1000 | < 1000 | < 1000 |  | IC50 (DRB3_0202): < 1000 nM; Solubility at pH 7 [1]: Clear
HRGKPFQLEAVFEANQNTKT [pep-091] |  |  |  |  |  | < 1000 | < 1000 | < 1000 | < 1000 |  | < 1000 | < 1000 | < 1000 | IC50 (DPA10103-DPB10201): < 1000 nM; IC50 (DQA10501-DQB10201): < 1000 nM; IC50 (DRB3_0202): < 1000 nM
VQESYYRYVAREQSSRRPNAQ [pep-124] | < 1000 |  | < 1000 | < 1000 |  | < 1000 |  |  |  | < 1000 |  |  |  | IC50 (DPA10103-DPB10201): < 1000 nM
KSENVVVTVKLVGDNGVLAS [pep-109] |  | < 1000 |  | < 1000 |  | < 1000 |  |  |  |  |  | < 1000 | < 1000 | IC50 (DRB1_0301): < 1000 nM; IC50 (DRB3_0101): < 1000 nM
CC[C@H](C)[C@H](NC(=O)[C@H](CO)NC(=O)[C@@H]1CCCN1C(=O)[C@H](CCC(=O)O)NC(=O)[C@H](CO)NC(=O)CNC(=O)[C@H](Cc1c[nH]cn1)NC(=O)[C@H](CO)NC(=O)CN)C(=O)N[C@H](C(=O)N[C@@H](Cc1c[nH]cn1)C(=O)N[C@@H](CCCNC(=N)N)C(=O)NCC(=O)N[C@@H](CCCCN)C(=O)N1CCC[C@H]1C(=O)N[C@@H](Cc1ccccc1)C(=O)N[C@@H](CCC(N)=O)C(=O)N[C@@H](CC(C)C)C(=O)N[C@@H](CCC(=O)O)C(=O)N[C@@H](C)C(=O)O)[C@@H](C)CC [pep-090] |  |  |  |  | < 1000 |  | < 1000 |  |  | < 1000 | < 1000 | < 1000 | < 1000 | IC50 (DQA10102-DQB10602): < 1000 nM; IC50 (DQA10501-DQB10301): < 1000 nM
SYYRYVAREQS [HDM205, reference compound] |  | < 1000 |  | < 1000 | < 1000 | < 1000 |  |  | < 1000 | < 1000 | < 1000 | < 1000 | < 1000 | 
RGLKQMKRVGDANV [HDM35A, reference compound] |  |  |  | < 1000 |  | < 1000 | < 1000 |  |  |  |  |  |  | 
